# In patent US20250154288A1, “CYTOTOXICITY TARGETING CHIMERAS FOR C-C CHEMOKINE RECEPTOR 2-EXPRESSING CELLS” (GLAXOSMITHKLINE INTELLECTUAL PROPERTY DEVELOPMENT LIMITED, priority 2022, published 2025):
# Where a name gives a salt, the structure may show the parent alone.
# Biological target: T1, CHOK1 cells engineered to overexpress human CCR2 (Homo sapiens, UniProt P41597)
# T1 construct: expressed in transfected cells; host or cells: CHOK1
# Assay: Antibody Dependent Cellular Cytotoxicity (ADCC) Reporter Assay
# Format: cell-based
# Conditions: with anti-cotinine antibody (human IgG1 Fc, S239D/I332E); Jurkat FcγRIIIa NFAT-luciferase reporter cells; average if several runs; read-out: ADCC Reporter Assay pEC50 (converted)
# Method: An antibody dependent cellular cytoxocity reporter assay was conducted using the following four assay components: (i) ARM compound of Formula (I) targeting CCR2 (concentrations ranging from 1 pM to 10 μM) (ii) anti-cotinine antibody having a heavy chain sequence of SEQ ID NO: 11 and a light chain sequence of SEQ ID NO: 12 (rabbit variable region with human IgG1 Fc domain containing a DE mutation (S239D/I332E)) (concentrations ranging from 0.01 μg/mL to 200 μg/mL); (iii) target cells: CHOK1 cells engineered to overexpress either human CCR2 (typically 1000-20,000 cells per well) and (iv) reporter cells: Jurkat cells engineered to express FcγRIIIa with the reporter gene luciferase under the control of the NFAT promoter (typically 3000-75,000 cells per well). Reagents were combined in a final volume of 20 μL in a 384-well tissue culture treated plate. All four assay components were incubated together for about 12-18 hours. Thereafter, BioGlo Detection reagent (Promega) was added to the wells to lyse the cells and provide a substrate for the luciferase reporter protein. Luminescence signal was measured on a microplate reader and signal:background was calculated by dividing the signal of a test well by the signal obtained when no heterobivalent compound of Formula (I) was added. EC50 calculations were done using Graphpad Prism Software, specifically a nonlinear regression curve fit (Y=Bottom+(Top−Bottom)/(1+10 ^((Log EC50−X)*HillSlope))).
# ARMs compounds of Formula (I) of the invention were tested for ADCC activity in the above assay in or more experimental runs and the results are shown in Table 3 below. Potency of the compounds of Formula (I) of the invention is reported as a pEC50 value. The pEC50 value is the negative log of the EC50 value, wherein the EC50 value is the half maximal effective concentration measured in molar (M). For compounds tested in more than one experimental run, the pEC50 value is reported as an average.
row,Structure (SMILES),EC50
1,"CO[C@@H]1COCC[C@@H]1N[C@@H]1CC[C@@](C(=O)N2Cc3cc(C(F)(F)F)cnc3[C@@H](NC(=O)CCOCCOCCOCCOCCOCCOCCOCCOCCOCCOCCOCCOCCNC(=O)[C@H]3CC(=O)N(C)[C@@H]3c3cccnc3)C2)(C(C)C)C1 (stereo in doubt) [Example 24, (2S,3S)-N-(39-(((S)-6-((1S,3R)-1-Isopropyl-3-(((3S,4S)-3-methoxytetrahydro-2H-pyran-4-yl)amino)cyclopentane-1-carbonyl)-3-(trifluoromethyl)-5,6,7,8-tetrahydro-1,6-naphthyridin-8-yl)amino)-39-oxo-3,6,9,12,15,18,21,24,27,30,33,36-dodecaoxanonatriacontyl)-1-methyl-5-oxo-2-(pyridin-3-yl)pyrrolidine-3-carboxamide, 3Formic acid salt]",1 nM
2,"CO[C@@H]1COCC[C@@H]1N[C@@H]1CC[C@](CCCCNC(=O)[C@H]2CC[C@@H](NC(=O)CCOCCOCCOCCNC(=O)[C@H]3CC(=O)N(C)[C@@H]3c3cccnc3)CC2)(C(=O)N2CCc3ncc(C(F)(F)F)cc3C2)C1 [Example 18, (2S,3S)-N-(2-(2-(2-(3-(((1R,4s)-4-((4-((1S,3R)-3-(((3S,4S)-3-Methoxytetrahydro-2H-pyran-4-yl)amino)-1-(3-(trifluoromethyl)-5,6,7,8-tetrahydro-1,6-naphthyridine-6-carbonyl)cyclopentyl)butyl)carbamoyl)cyclohexyl)amino)-3-oxopropoxy)ethoxy)ethoxy)ethyl)-1-methyl-5-oxo-2-(pyridin-3-yl)pyrrolidine-3-carboxamide, Formic acid salt]",5.01 nM
3,"CO[C@@H]1COCC[C@@H]1N[C@@H]1CC[C@@](C(=O)N2Cc3cc(C(F)(F)F)cnc3[C@H](NC(=O)CCOCCOCCOCCOCCOCCOCCOCCOCCOCCOCCOCCOCCNC(=O)[C@H]3CC(=O)N(C)[C@@H]3c3cccnc3)C2)(C(C)C)C1 [Example 23, (2S,3S)—N-(39-(((R)-6-((1S,3R)-1-Isopropyl-3-(((3S,4S)-3-methoxytetrahydro-2H-pyran-4-yl)amino)cyclopentane-1-carbonyl)-3-(trifluoromethyl)-5,6,7,8-tetrahydro-1,6-naphthyridin-8-yl)amino)-39-oxo-3,6,9,12,15,18,21,24,27,30,33,36-dodecaoxanonatriacontyl)-1-methyl-5-oxo-2-(pyridin-3-yl)pyrrolidine-3-carboxamide, 3Formic acid salt]",0.398 nM
